One compound from article PMC4844572 (SpringerPlus, 2016) can be followed below.

The subject of this assay is EstSTR1. It counts as biochemical, uncultured bacterium. To be noted: competitive against 100 μM cephalothin; 10 mM MES pH 6.8, bovine serum albumin 20 μg/ml, enzyme 396 μM as printed; stands in Km column, footnote gives Ki.

Regarding `CO/N=C(\C(=O)N[C@@H]1C(=O)N2C(C(=O)O)=C(COC(C)=O)CS[C@H]12)c1csc(N)n1` [TAX, cefotaxime], the “Km (μM) / Wild” value came to 0.90 ± 0.004 µM.
